Measurements as given in PubChem BioAssay (NCI).
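Where inhibition never reached the appropriate level, the endpoint shown equals the highest concentration tested. Otherwise, values were interpolated linearly from a five-concentration, 48-hour dose response in 96-well plates. GI50 = concentration required for 50% inhibition of growth. TGI denotes the concentration required for complete inhibition of growth.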

Columns and labels:
Assay in all cases: DTP human tumour cell line panel, 48 h
[1] = tested on: CCRF-CEM leukemia
[2] = tested on: KM12 colon
[3] = tested on: MDA-MB-435
[4] = tested on: MOLT-4 leukemia
[5] = tested on: NCI-H226 lung
[6] = tested on: NCI-H460 lung
[7] = tested on: OVCAR-3 ovarian
[8] = tested on: OVCAR-4 ovarian
[9] = tested on: SK-OV-3 ovarian
[10] = tested on: UACC-62 melanoma

Structure (SMILES)	TGI [1] [µM]	TGI [2] [µM]	TGI [3] [nM]	TGI [4] [µM]	TGI [5] [µM]	TGI [6] [µM]	TGI [7] [nM]	TGI [8] [µM]	TGI [9] [µM]	TGI [10] [µM]	GI50 [1] [nM]	GI50 [2] [nM]	GI50 [3] [nM]	GI50 [4] [nM]	GI50 [5] [µM]	GI50 [6] [nM]	GI50 [7] [nM]	GI50 [8] [µM]	GI50 [9] [nM]	GI50 [10] [nM]
O=C(NC(=O)c1ccccc1[N+](=O)[O-])Nc1ccc(Oc2ncc(Cl)cn2)c(C(F)(F)F)c1	> 100	3.63	< 12.3	> 69.1	1.39	> 20.7	838	98.4	> 46.5	> 100										
Cc1c(Cl)cccc1NC(=O)c1sc2nc3c(cc2c1N)CCCCC3	> 50	> 50	317	> 50	34.1	8	1690	> 50	29.9	> 50	257	236	104	275	4.68	234	173	5.28	230	233
CCCCCCCCCCCCCCCCCC(=O)Nc1ccn(C2OC(CO)C(O)C2O)c(=O)n1 (stereo not given)	26.2	> 100	> 100000	23.1	> 100	> 100	69600	> 100	> 100	> 100										
COc1cc(-c2csc(NC(=O)Nc3cc(Cl)cc(Cl)c3)n2)cc(OC)c1OC	> 100	8.14	3960	> 100	4.38	3.52	3260	3.36	3.75	3.11	3410	2480	1900	3900	1.96	1810	1800	1.78	1860	1610
